≈ marks a conversion by molar mass, not a printed value.
Assays:
Type in all cases: physicochemical
[1] = Dissolution experiments (dissolution kinetics in water)
Protocol: For each timepoint (5 min, 10 min, 20 min, 35 min, 60 min and 1440 min) of the dissolution experiment, three samples each of X-ray amorphous and crystalline ciclesonide were prepared by weighing a defined amount of in each case about 15 mg into a 250 ml conical wide-necked Erlenmeyer flask and stirring (850 rpm, glass coated magnetic stir bar, having a length of 2.4 cm and a diameter of 0.59 cm) the samples at 37° C. in 100 ml water (Millipore quality, ELIX 3, Gradient A 10, pH 5.92-6.00). The moment of the addition of water was defined as t0. The tempering of the samples was performed using an air bath. After the desired stirring time, the complete samples were filtered through a 0.2 μm membrane filter (Schleicher & Schuell, RC 0.2 μm Spartan 30/A) and concentrated on a Sep-Pak cartridge (Waters Sep-Pak cartridge C18, WAT051910). The cartridge was then eluted with ethanol (gradient grade, Merck). The ciclesonide in the ethanol solution was then quantified by HPLC (LaChrom®-HPLC System Series 7000, column: Zorbax SB phenyl, eluent: water/ethanol 38%: 62% (v/v) isocratic, column temperature: 60° C., injection volume: 50 μL, UV-detection at 243 nm) against an external standard.

[2] = Saturation solubility experiments; conditions: water, 24 hours stirring after ultrasonic treatment
Protocol: Defined amounts of in each case about 14 to 25 mg of X-ray amorphous or crystalline ciclesonide were weighed into a conical Erlenmeyer flask equipped with a rubber stopper (n=3). 100 ml of water (Millipore quality. ELIX 3. Gradient A 10, pH 5.92-6.00) were added and 30 minutes of ultrasonic treatment was applied to the samples. Afterwards the samples were stirred in the dark for 24 hours at 37° C. in a water bath. After the desired stirring time, each sample was filtered through a 0.2 μm membrane filter (Schleicher & Schuell, RC 0.2 μm Spartan 30/A) and concentrated on a Sep-Pak cartridge (Waters Sep-Pak cartridge C18, WAT051910). Then the cartridge was eluted with ethanol (gradient grade, Merck). The ciclesonide in the ethanol solution was then quantified by HPLC (LaChrom®-HPLC System Series 7000, column: Zorbax SB phenyl, eluent: water/ethanol 38%: 62% (v/v) isocratic, column temperature: 60° C., injection volume: 50 μL, UV-detection at 243 nm) against an external standard.

Hygroscopicity = assay: Hygroscopicity
[3] = Stability under elevated pressure (recrystallization); conditions: pressure of up to 2.500 for 5 min
Text: Such a stability against pressure is particularly desirable when a pharmaceutical agent is used for preparation of solid pharmaceutical compositions such as tablets or granules.

solubility at 1 h ([1]; pH 6, thermodynamic from solid, 37° C., after 1 hour) | solubility at 24 h ([2]; 37 °C, pH 6, water, thermodynamic from solid) | hygroscopicity (Hygroscopicity) | concentration of dissolved ingredient after 20 minutes ([1]; 37° C., after 20 minutes) | concentration of dissolved ciclesonide after 24 hours ([1]; 37° C., after 24 hours) | concentration of dissolved ingredient within 5 minutes ([1]; 37° C., within 5 minutes) | concentration of dissolved ingredient relative to crystalline ciclesonide after 1 hour ([1]; after 1 hour, amorphous vs crystalline) | saturation solubility ([2]; 37° C.) | Structure (SMILES) | recrystallization under pressure [3]
~0.05 µg/mL (≈ 0.0925 µM) | ~0.091 µg/mL (≈ 0.168 µM) | – | – | – | – | – | – | CC(C)C(=O)OCC(=O)[C@@]12OC(C3CCCCC3)O[C@@H]1CC1[C@@H]3CCC4=CC(=O)C=C[C@]4(C)[C@H]3[C@@H](O)C[C@@]12C (stereo partly drawn) [crystalline ciclesonide, 16,17-[(Cyclohexyl-methylene)bis(oxy)]-11-hydroxy-21-(2-methyl-1-oxopropoxy)-pregna-1,4-diene-3,20-dione[11β,16α], reference compound] | –
– | – | not hygroscopic | 340 ng/mL | 105 ng/mL | 290 ng/mL | about sevenfold | 0.0916 ± 0.0052 µg/mL | CC(C)C(=O)OCC(=O)[C@@]12OC(C3CCCCC3)O[C@@H]1CC1[C@@H]3CCC4=CC(=O)C=C[C@]4(C)[C@H]3[C@@H](O)C[C@@]12C (stereo partly drawn) [amorphous ciclesonide, 16,17-[(Cyclohexyl-methylene)bis(oxy)]-11-hydroxy-21-(2-methyl-1-oxopropoxy)-pregna-1,4-diene-3,20-dione[11β,16α]] | did not show any signs of recrystallization

Source: patent US20100120737A1, “Amorphous ciclesonide” (priority 2008, published 2010)
